Measured values: patent publication US20060057669A1, “Inactive transcription factor tif-ia and uses thereof” (priority 2002, published 2006)

Columns and labels:
Pol I transcription [1] = assay: In vitro transcription: TIF-IA mutants restoring rDNA transcription of nuclear extract from density-arrested FM3A cells; format: biochemical, murine; conditions: S633/S649 mutants; 20 and 40 ng
Outline: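 FLAG-tagged wild-type or mutant TIF-IA, immunopurified from HEK293T cells (20/40 or 30/60 ng), added to nuclear extract of density-arrested FM3A cells with pMr600/EcoRI rDNA template. Reaction at pH 8.0 with [α-32P]UTP, 60 min at 30 °C. RNA resolved on non-denaturing 5% polyacrylamide gels.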

HEK293T cells [2] = assay: Cell enumeration by dual-parameter flow cytometry; format: cell-based; conditions: 60 hr after transfection
Protocol: (C) Cell enumeration by flow cytometry. HEK293T cells expressing wild-type TIF-IA or the S649 mutants were harvested 60 hours after transfection, stained with FITC-conjugated anti-FLAG M2 antibodies and analyzed by dual-parameter flow cytometry in a FACScan™ flow cytometer in the presence of CaliBRITE™ calibration beads. 60,000 events were recorded from each sample. The number of cells expressing FLAG-TIF-IA was calculated from the ratio between FITC-positive cells and counted beads.
HEK293T cells were harvested 60 hr after transfection with pcDNA-FLAG-TIF-IA, fixed with 2% paraformaldehyde and permeabilized with 0.1% Triton X-100 in PBS. […] Cell were analyzed with a FACSCan™ flow cytometer in the presence of CaliBRITE™ beads (Becton Dickinson, San Jose, USA). The number of cells expressing FLAG-TIF-IA was calculated from the ratio between FITC-positive cells and counted beads.
Given the functional significance of ERK/RSK-directed TIF-IA phosphorylation on Pol I transcription, mutations that enhance or abrogate TIF-IA activity may have a positive or negative effect on cell growth. […] The expression of TIF-IA was estimated on Western blots and the cellular growth rate was measured by calcein-AM staining. […] Thus, cellular calcein fluorescence correlates with the amount of viable cells. […]

Pol I transcription [3] = assay: In vitro transcription: TIF-IA mutants added to nuclear extract from exponentially growing FM3A cells; format: biochemical, murine; conditions: 20 and 40 ng added to 15 ug nuclear extract
Protocol: 20 and 40 ng of the indicated TIF-IA mutants were added to 15 ug nuclear extract from exponentially growing FM3A cells and rDNA transcription was assayed.
Nuclear extracts were prepared from exponentially growing (8×10^5 cells/ml), density-arrested or PD98059-treated (CN Bioscience, Bad Soden, Germany) 40 μM, 0.5 hr) or rapamycin-treated FM3A cells (ATCC, Manassas, USA). 25 μl assays contained 50 ng of template DNA (pMr600/EcoRI), 30 μg nuclear extract proteins and 12 mM Hepes-KOH, [pH8.0], 0.1 mM EDTA, 5 mM MgCl2, 80 mM KCl, 10 mM creatine phosphate, 12% (v/v) glycerol, 0.66 mM each of ATP, GTP and CTP, 0.01 mM UTP and 0.5 μCi [α-^32P]UTP (5000 Ci/mmol). After incubation for 60 min at 30° C., RNA was extracted and analyzed on non-denaturing 5% polyacrylamide gels
Given that phosphorylation of TIF-IA at serine 649 is essential for transcription, excess of TIF-IAS649A should impair Pol I transcription. To test this, we examined the effect of exogenous wild-type and mutant TIF-IA on transcriptional activity of extracts from exponentially growing cells.

HEK293T cells [4] = assay: Quantitative fluorimetric viability assay with calcein-AM; format: cell-based; conditions: 24, 36, 48 and 60 hr after transfection; 2 μM calcein-AM
Protocol: (B) Quantitative fluorimetric viability assay with calcein-AM. HEK293T cells were transfected with TIF-IA or the indicated point mutants. […] Viable cells were measured 24, 36, 48 and 60 hr after transfection by incubation with […] calcein-AM. The gradual increase in fluorescence intensity was recorded with a fluorescence multi-well plate reader for 20 min with an excitation wavelength of 485 nm and an emission wavelength of 530 nm. The proliferation rate of mock-transfected cells and cells overexpressing TIF-IA is shown at the left. Plots show the accumulation of calcein fluorescence (arbitrary units) against time. Growth rates calculated from linear regression curves are shown at the right. Values are presented as the mean±SD from three independent experiments performed in duplicates.
Conversion of calcein-AM (calcein acetoxymethyl ester, (CN Bioscience GmbH, Bad Soden, Germany) to calcein was used to measure cell proliferation. 12 hr after transfection, HEK293T cells were seeded to 96-well micro-plates at 1×10^4 cells/well. After 24, 36, 48 and 60 hr, cells were washed with PBS, incubated with 2 μM calcein-AM, and the gradual increase in fluorescence intensity within the cells was recorded by a fluorescence multi-well plate reader (CytoFluor Series 4000/TC, PerSeptive Biosystems, (Applied Biosystems, Forster City, USA) for 20 min in 1 min intervals. Excitation wavelength used for measurements of fluorescence was 485 nm with a bandwidth of 20 nm; emission wavelength was 530 nm with a bandwidth of 25 nm. Under the experimental conditions used, there is a direct correlation between the accumulation ratio of intracellular calcein fluorescence and the number of viable cells. The data from three independent experiments were analyzed by Sigmaplot and expressed as the mean±standard deviation. For statistical analysis, student's t test was used. Differences with a P<0.01 were considered statistically significant.
Given the functional significance of ERK/RSK-directed TIF-IA phosphorylation on Pol I transcription, mutations that enhance or abrogate TIF-IA activity may have a positive or negative effect on cell growth. To test this, HEK293T cells were transfected with cDNAs encoding wild-type or mutant TIF-IA which harbor single or double point mutations at S649 and S633. The expression of TIF-IA was estimated on Western blots and the cellular growth rate was measured by calcein-AM staining. Calcein-AM is a non-fluorescent, hydrophobic compound that is rapidly hydrolyzed by intracellular esterases releasing hydrophilic fluorescent calcein. Thus, cellular calcein fluorescence correlates with the amount of viable cells. […] Cells expressing FLAG-tagged wild-type or mutant TIF-IA were stained with FITC-conjugated anti-FLAG antibodies, identified by FACS and cell numbers were calculated by measuring the ratio of stained cells versus an internal standard. […] Conversely, the number of cells expressing TIF-IAS649A was 33% lower than the control. […] Taken together, the results reveal a striking correlation between phosphorylation of TIF-IA at serine 649, cellular rRNA synthetic activity and cell cycle progression.

HEK293T cells [5] = assay: Trypan blue staining; format: cell-based; conditions: data not shown
HEK293T cells [6] = assay: Relative DNA content of sorted cells by FACS analysis; format: cell-based
Protocol: HEK293T cells were harvested 60 hr after transfection with pcDNA-FLAG-TIF-IA, fixed with 2% paraformaldehyde and permeabilized with 0.1% Triton X-100 in PBS. Transfected cells were labeled by incubation for 1 hr with 2 μg/ml FITC-conjugated anti-M2 antibodies (Sigma) and subsequently stained with […] propidium iodide (Sigma). Cell were analyzed with a FACSCan™ flow cytometer in the presence of CaliBRITE™ beads (Becton Dickinson, San Jose, USA). The number of cells expressing FLAG-TIF-IA was calculated from the ratio between FITC-positive cells and counted beads.
Given the functional significance of ERK/RSK-directed TIF-IA phosphorylation on Pol I transcription, mutations that enhance or abrogate TIF-IA activity may have a positive or negative effect on cell growth. To test this, HEK293T cells were transfected with cDNAs encoding wild-type or mutant TIF-IA which harbor single or double point mutations at S649 and S633. The expression of TIF-IA was estimated on Western blots and the cellular growth rate was measured by calcein-AM staining. […] Thus, cellular calcein fluorescence correlates with the amount of viable cells. […] Cells expressing FLAG-tagged wild-type or mutant TIF-IA were stained with FITC-conjugated anti-FLAG antibodies, identified by FACS and cell numbers were calculated by measuring the ratio of stained cells versus an internal standard. […]

HEK293T cells [7] = assay: Images of transfected HEK293T cells; format: cell-based; conditions: images taken after 48 h
Protocol: HEK293T cells were transfected with TIF-IA or TIFIAS649A, respectively, and images were taken after 48 h.

“TIF-IAS649A: TIF-IA point mutant, serine residue at position 649 replaced by an alanine residue” was tested, and the “capability to rescue transcription of extracts from density-arrested cells” value (Pol I transcription [1]) was “abolished TIF-IA activity”, the “number of cells lower than the control” value (HEK293T cells [2]) was 33% and the “effect on transcriptional activity of extracts from exponentially growing cells” value (Pol I transcription [3]) was “acts as a dominant-negative inhibitor of Pol I transcription”. The “effect on transcriptional activity of extracts from exponentially growing cells” value (Pol I transcription [3]; listed as S649A) was “suppressed transcription well below the basal level”, the “cellular growth rate by calcein-AM staining” value (HEK293T cells [4]) was “impaired cell growth” and the “cell viability as cause of growth inhibition” value (HEK293T cells [5]) was “not due to decreased cell viability”. For the same substance, the “decrease of G2/M-phase cells” value (HEK293T cells [6]) was 25% and the “cell growth on images” value (HEK293T cells [7]) was “retards cell growth”.
